Entries after “also recorded” stand apart in the source; their conditions may differ.
Columns and labels:
[1] = test system: endometrium of the uterus; assay: Decidualization assay in pseudopregnant mice, oil-induced uterine weight gain; format: in vivo; conditions: for Inhibition of decidualization weight gain: vs oil control; for Net Uterine Weight Gain: intraluminal, autopsy Day 7, oil alone control 334.7 +/- 41.0
Method: A successful pregnancy requires not only the effective collision and fusion of egg and spermatozoon, but also the provision of a receptive and supportive uterus. The preparation of the endometrium of the uterus for implantation (i.e. decidualization) starts well before the blastocyst arrives in the uterus.
Psuedopregnant mice (i.e. mated with vasectomized males) were used to establish the assay system. […] At 16 hours of Day 4, a small volume of sesame oil (10 μl) was introduced to the lumen of the right uterine horn to serve as a decidual stimulus. The left horn was left undisturbed to serve as an internal control. Autopsies were performed on Day 7 to assess uterine wet weight gains in the stimulated versus non-stimulated uterine horns.
Each of these compounds was intraluminally administered in an appropriate dosage on Day 4 along with the sesame oil administration.

[2] = test system: progesterone receptor (T47D cells); assay: Antagonist assay in T47D (human breast cancer) cells (Tables 1 and 2); format: cell-based; conditions: for Efficacy (% maximal response relative to RU-486), T47D cells: antagonist activity; for IC50: concentration required to reduce the maximal response by 50%, read-out: Potency (IC50), T47D cells
Description: The functional activities of the cyclocymopol analogues in the human breast cell line, T47D, were also investigated. T47D cells have proven to be a particularly useful model to investigate the molecular actions of sex steroids because they contain endogenous functional receptors for, and respond to, progestins, and their respective antagonists. […] In T47D cells, progestins induce de novo synthesis of a plasma-associated alkaline phosphatase, which has been reported to be similar, if not identical, to the alkaline phosphatase present in the normal breast and human milk. These tests were conducted according to the following illustrative example.
The assay was also run using T47D (human breast cancer) cells.

[3] = biological target: T1, human progesterone receptor (Homo sapiens, UniProt P06401); assay: Progesterone receptor binding (displacement of 3H-progesterone, whole cell extract of transfected CV-1 cells); design: expressed in transfected cells; host or cells: CV-1 cells (calcium phosphate transfection), whole cell extract
T1 sequence (P06401 1-933): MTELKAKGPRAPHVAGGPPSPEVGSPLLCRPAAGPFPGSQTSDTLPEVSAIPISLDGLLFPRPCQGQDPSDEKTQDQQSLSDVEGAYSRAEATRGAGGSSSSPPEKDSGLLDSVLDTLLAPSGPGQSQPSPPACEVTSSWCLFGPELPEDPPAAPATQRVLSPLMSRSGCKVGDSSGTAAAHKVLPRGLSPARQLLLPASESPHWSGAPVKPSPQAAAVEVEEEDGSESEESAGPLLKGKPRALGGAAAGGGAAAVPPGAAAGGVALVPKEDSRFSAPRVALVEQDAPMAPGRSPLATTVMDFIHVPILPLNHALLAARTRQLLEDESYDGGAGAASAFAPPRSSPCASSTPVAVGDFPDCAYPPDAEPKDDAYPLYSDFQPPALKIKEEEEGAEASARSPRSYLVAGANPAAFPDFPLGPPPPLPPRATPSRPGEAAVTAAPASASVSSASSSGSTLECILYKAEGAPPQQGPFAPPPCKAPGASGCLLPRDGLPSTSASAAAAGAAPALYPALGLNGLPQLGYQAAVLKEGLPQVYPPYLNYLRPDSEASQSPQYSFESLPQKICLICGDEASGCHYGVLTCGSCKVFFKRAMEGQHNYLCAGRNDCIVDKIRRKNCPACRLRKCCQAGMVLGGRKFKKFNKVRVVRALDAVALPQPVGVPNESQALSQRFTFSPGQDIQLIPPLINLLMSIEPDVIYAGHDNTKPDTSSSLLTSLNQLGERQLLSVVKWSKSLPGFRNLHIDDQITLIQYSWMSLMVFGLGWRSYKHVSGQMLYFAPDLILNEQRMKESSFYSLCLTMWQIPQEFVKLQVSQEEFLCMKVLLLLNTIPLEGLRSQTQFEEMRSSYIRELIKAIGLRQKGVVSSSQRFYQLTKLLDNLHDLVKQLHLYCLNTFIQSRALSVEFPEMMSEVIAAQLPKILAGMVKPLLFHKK
Method: These tests were conducted according to the following illustrative example.
CO2 for 40 hours prior to harvest.
After incubation, cells were harvested and washed in phosphate buffered saline. Whole cell receptor extract was prepared by homogenizing the harvested cells in Tris-HCl buffer, pH=7.4, containing 30% glycerol, 1 mM EDTA, 12 mM monothioglycerol, 1 mM PMSF, and 0.5M potassium chloride. The homogenate was incubated at 4° C. for 60 min with resuspension every 10 min. The suspension was centrifuged (105,000×g, 60 min) and the supernatant was collected and flash frozen in liquid nitrogen and stored frozen at -70° C.
To a […] final volume incubation mixture, […] of 7.5% (w/v) dextran-coated charcoal suspension in gelatin phosphate buffer was added. The mixture was vortexed and incubated at 4° C. for 10 min and then centrifuged at 3000 rpm for 10 min. The amount of bound tritiated hormone was determined by liquid scintillation spectrophotometry of an aliquot of the supernatant. […]

[4] = test system: human progesterone receptor altered at the Tau-1 location; assay: Co-transfection assay in CV-1 cells, progesterone receptor altered at Tau-1, antagonist activity; format: cell-based; conditions: for Efficacy (% maximal response relative to RU-486), CV-1 cells: antagonist activity; for IC50: concentration required to reduce the maximal response by 50%, read-out: Potency (IC50), CV-1 cells
Description: (§1) This assay is described in further detail in U.S. Pat. Nos. 4,981,784 and 5,071,773, which are incorporated herein by reference. The co-transfection assay provides a method for identifying functional ligands (either agonists which mimic, or antagonists which inhibit, the effect of hormones) for ligand-responsive receptor proteins.
(§2) The co-transfection assay provides a mechanism to evaluate ability of a compound to function as an agonist or antagonist of the activity modulated by an intracellular receptor. The co-transfection assay mimics an in vivo system in the laboratory. In the co-transfection assay, a cloned gene for an intracellular receptor is introduced by transfection (a procedure to induce cells to take up foreign genes) into a background cell substantially devoid of endogenous intracellular receptors. This introduced gene directs the recipient cells to make the intracellular receptor protein. A second gene is also introduced (co-transfected) into the same cells in conjunction with the intracellular receptor gene. This second gene functions as a reporter for the transcription-modulating activity of the target intracellular receptor. The reporter acts as a surrogate for the products normally expressed by a gene under control of the target receptor and its natural hormone.
(§3) A preferred reporter gene is one which expresses the firefly enzyme luciferase. The co-transfection assay can detect small molecule agonists or antagonists of target intracellular receptors. Exposing the cells to an agonist ligand increases reporter activity in the transfected cells that can be conveniently measured, reflecting ligand-dependent, intracellular receptor-mediated increases in reporter transcription. To detect antagonists, the co-transfection assay is carried out in the presence of a constant concentration of an agonist known to induce a defined reporter signal. Increasing concentrations of a test antagonist will decrease the reporter signal. The co-transfection assay is therefore useful to detect both agonists and antagonists of specific intracellular receptors. It determines not only whether a compound interacts with a particular intracellular receptor, but also whether this interaction mimics (agonizes) or blocks (antagonizes) the effects of the natural regulatory molecules on target gene expression.
(§4) Co-transfected cells are exposed to a medium to which is added the potential ligand that is being evaluated. If the candidate ligand diffuses into the cell and binds to the receptor and the resulting complex functions as an agonist, it binds to the co-transfected reporter gene and initiates transcription. When that gene is one that expresses, for example, luciferase, luciferase is produced which catalyzes a light-emitting reaction with its substrate luciferin. Thus, after cell lysis and the introduction of luciferin, the amount of light produced relative to the concentration of candidate ligand used in the assay provides a measure of the potency and efficacy of the compound tested. Antagonist activity is evaluated by adding the candidate ligand and a known agonist to the co-transfected cells.
(§5) The receptor cDNA was introduced in a mammalian expression vector under the control of the Rous Sarcoma virus LTR. […] A reporter vector was also transfected, containing a firefly luciferase gene under the control of the hormone-responsive promoter. […] The level of luciferase activity was then measured in cell extracts. Light emission is directly proportional to the effectiveness of the hormone-receptor complex in activating gene expression.
A total of three replicates per concentration point were tested for each compound, and the EC50 was calculated for each positive response. Both agonist and antagonist activity for each test compound was determined in parallel. […]

[5] = biological target: T1, human progesterone receptor; assay: Co-transfection (cis-trans) assay in CV-1 cells, agonist and antagonist mode; format: cell-based; design: expressed in transfected cells; host or cells: CV-1 cells (calcium phosphate transfection), whole cell extract; conditions: antagonist mode with 10^-8 M progesterone
Description: as §1, §2, §3, §4, §5
A total of three replicates per concentration point were tested for each compound, and the EC50 was calculated for each positive response. Both agonist and antagonist activity for each test compound was determined in parallel.

T47D cells = assay: Alkaline phosphatase activity in T47D cells (induction and its inhibition); format: cell-based, human; conditions: ligand alone; three days
Description: The functional activities of the cyclocymopol analogues in the human breast cell line, T47D, were also investigated. T47D cells have proven to be a particularly useful model to investigate the molecular actions of sex steroids because they contain endogenous functional receptors for, and respond to, progestins, and their respective antagonists. Moreover, these cells contain exceptionally high titers of progesterone receptors and are exquisitely sensitive to the actions of progestins in a manner quite similar to their actions in normal and neoplastic mammary epithelial cells. In T47D cells, progestins induce de novo synthesis of a plasma-associated alkaline phosphatase, which has been reported to be similar, if not identical, to the alkaline phosphatase present in the normal breast and human milk. These tests were conducted according to the following illustrative example. […] For routine induction of alkaline phosphatase, cells were treated for three days with two media changes and harvested as described below. […] Nuclei were sedimented at 2500 rpm, and the supernatant was saved as cytosol. The protein content of the cytosol was assayed by the method of Bradford. Alkaline phosphatase activity was determined by incubating one volume of cell extract with three volumes of 1 mg/ml p-nitrophenol phosphate prepared in DEAM (1M diethanolamine, pH=9, containing 2 mM magnesium chloride) at room temperature for 20 min. At the end of the incubation time, the reaction was stopped with an equal volume of 1N NaOH. Ten standards of p-nitrophenol were prepared in DEAM buffer and absorbance was read at 405 nm. Alkaline phosphatase activity is expressed as pmol p-nitrophenol formed/min/mg protein.

Row | Compound | Inhibition of decidualization weight gain ([1]; 0.1 mg) | Net Uterine Weight Gain ([1]; 0.1 mg) [mg] | Efficacy (% maximal response relative to RU-486), T47D cells [2] [%] | IC50 [2] [nM] | Inhibition of decidualization weight gain ([1]; 5 mg) | Net Uterine Weight Gain ([1]; 5 mg) [mg] | Kd [3] [nM] | Efficacy (% maximal response relative to RU-486), CV-1 cells [4] [%] | IC50 [4] [nM] | Progesterone receptor agonist/antagonist activity [5] | Agonist activity, alkaline phosphatase induction (T47D cells)
1 | CN(C)c1ccc([C@H]2C[C@]3(C)[C@@H](CC[C@]3(O)CCCO)[C@@H]3CCC4=CC(=O)CCC4=C32)cc1 [ZK299, reference compound] | approximately 88% | 41.1 ± 21.0 |  |  |  |  |  |  |  |  | 
2 | C=C1C=C(C)CC(C)(C)C1Cc1ccc([N+](=O)[O-])cc1 (stereo not shown) [I, 1-Methylidene-6-(4'-nitrophenyl)methyl-3,5,5-trimethylcyclohex-2-ene] |  |  | 75 | 125 | approximately 81% | 63.9 ± 20.9 | 55 | 95 | 700 |  | 
3 | COc1cc(CC2C(C)(C)CC(C)=CC23CC3)c(OC(C)=O)cc1Br (stereo not shown) [DD, 8-(2'-Acetoxy-4'-bromo-5'-methoxyphenyl)methyl-5,7,7-trimethylspiro[2.5]oct-4-ene] |  |  | 68 | 440 |  |  | 104 | 26 | 160 |  | 
4 | C=C1CCCC(C)(C)C1Cc1cc(OC)c(Br)cc1OC(=O)c1ccccc1 (stereo in doubt) [U, (3R)-1-Debromocyclocymopol monomethyl ether, benzoate] |  |  | 80 | 300 |  |  | 190 | 95 | 1600 |  | 
5 | C=C1CC[C@@H](Br)C(C)(C)[C@@H]1Cc1cc(OC)c(Br)cc1OC(=O)OC [T, (3R)-Cyclocymopol monomethyl ether, methyl carbonate] |  |  | 90 | 300 |  |  | 185 | 90 | 1580 |  | 
6 | O=C1CCCCC1Cc1ccc([N+](=O)[O-])cc1 (stereo not shown) [F, 2-(4'-Nitrophenyl)methylcyclohexan-1-one] |  |  | 80 | 200 |  |  | 925 | 100 | 550 |  | 
7 | C=C1CCCC(C)(C)C1Cc1cc(OC)c(Br)cc1OC(=O)OC (stereo in doubt) [R, (3R)-1-Debromocyclocymopol monomethyl ether, methyl carbonate] |  |  | 85 | 250 |  |  | 230 | 95 | 1220 |  | 
8 | C=C1CC[C@@H](Br)C(C)(C)[C@H]1Cc1cc(OC)c(Br)cc1OC(C)=O [SO-51] |  |  |  |  |  |  |  |  |  | progesterone receptor agonist activity | functional agonists; also recorded: increased the activity of intracellular alkaline phosphatase in a concentration-dependent manner
9 | C=C1CCCC(C)(C)C1Cc1cc(OC)c(Br)cc1O (stereo in doubt) [J, (3R)-1-Debromocyclocymopol monomethyl ether] |  |  | 85 |  | ~91% | 30.7 ± 16.2 |  | 95 |  |  | 

Reference: patent US5808139A (Ligand Pharmaceuticals Incorporated, priority 1994, dated 1998)
